This note sets out measurements from article PMC7855930, “Nontoxic Cobalt(III) Schiff Base Complexes with Broad‐Spectrum Antifungal Activity” (Chemistry (Weinheim an Der Bergstrasse, Germany), 2020).

Like-named read-outs stand apart in the source and are kept apart here.

Data set [1] deals with C. auris CBS 10913. Description: Antifungal MIC assay (broth microdilution in YNB). As to conditions: for MIC: Candidozyma auris, CBS10913. The format is cell-based, Candida auris. The source says: (§1) Yeast strains: Candida albicans (ATCC 90028, NCCLS 11), Cryptococcus neoformans (ATCC 208821, H99 type strain), Candida tropicalis (ATCC 750, type strain), Candida glabrata (ATCC 90030, NCCLS 84) and Cryptococcus deuterogattii (ATCC 32609, type strain) were obtained from the American Type Culture Collection (ATCC). Cryptococcus deuterogattii (CBS 7750), Candida auris (CBS 10913) and Candida auris (CBS 12373) were obtained from the CBS‐KNAW culture collection. The strains were maintained on glycerol/YPD (yeast extract‐peptone dextrose) broth (20:80 v/v) at −80 °C.
(§2) Antifungal minimum inhibitory concentration (MIC) assay: The cobalt complexes and antifungal control compounds were serially diluted in 50 μL of Yeast Nitrogen Broth (YNB; BD, Cat No. 233520 supplemented with 2 % glucose and 10 mM ammonium sulfate) two‐fold across the wells of non‐binding surface (NBS) 96‐well plates (Corning; Cat. No. 3641). Plates were set up in quadruplicate for each strain tested, and two biological replicates were conducted on separate assay days.
(§3) Yeast strains were cultured from glycerol onto YPD (Becton Dickinson 242720) agar at 30 °C for 72 h. For each strain, a minimum of five single colonies were taken from the agar plate and dissolved in sterile water and adjusted to form a yeast suspension of 1×10^6 to 5×10^6 CFU mL^−1 (as determined by OD530). The suspension was subsequently diluted into YNB media, and added to each well of the compound containing plates, giving a final cell density of 2.5×10^3 CFU mL^−1 and a total volume of 100 μL. Plates were covered and incubated at 35 °C for 36 h without shaking.
(§4) Growth inhibition of all strains was determined visually where the MIC was recorded as the lowest compound concentration with no visible growth. Fluconazole (Sigma F8929), ketoconazole (Sigma K1003) and micafungin (Sigma SML2288) were used as internal positive inhibitor controls for every strain tested.

Data set [2] concerns C. auris CBS 12373. Description: Antifungal MIC assay (broth microdilution in YNB). The format is cell-based, Candida auris.
Text: as §1, §2, §3, §4
For orientation: In broth dilution the organism is exposed to a series of concentrations in liquid medium.

In data set [3] the test system is C. glabrata ATCC 90030. Put plainly: Antifungal MIC assay (broth microdilution in YNB). The format is cell-based, Candida glabrata.
Text: as §1, §2, §3, §4

Data set [4] has as its system C. tropicalis ATCC 750. Put plainly: Antifungal MIC assay (broth microdilution in YNB). The format is cell-based, Candida tropicalis.
Text: as §1, §2, §3, §4

Data set [5] deals with C. deuterogattii ATCC 32609. Put plainly: Antifungal MIC assay (broth microdilution in YNB). Type of data set: cell-based, Cryptococcus deuterogattii.
Text: as §1, §2, §3, §4

Data set [6] has as its system C. deuterogattii CBS 7750. Put plainly: Antifungal MIC assay (broth microdilution in YNB). The format is cell-based, Cryptococcus deuterogattii.
Text: as §1, §2, §3, §4

Data set [7] has as its system C. neoformans ATCC 208821. Put plainly: Antifungal MIC assay (broth microdilution in YNB). Type of data set: cell-based, Cryptococcus neoformans.
Text: as §1, §2, §3, §4

The test system of data set [8] is Acinetobacter baumannii ATCC 19606. Description: CO-ADD bacterial broth microdilution MIC assay. The format is cell-based. As to conditions: CAMHB, 37 °C, 18 h, ≥ 80% inhibition; for MIC: Acinetobacter baumannii, ATCC19606, read-out: MIC Ab (Acinetobacter baumannii ATCC 19606). The procedure: (§5) CO-ADD High Throughput Screening
(§6) Bacterial broth microdilution minimum inhibitory concentration (MIC) assay Bacterial strains were cultured in Cation-adjusted Mueller Hinton broth (CAMHB; Bacto Laboratories 212322) at 37 °C overnight. A sample of each culture was then diluted 40-fold in fresh CAMHB and incubated at 37 °C for 1.5-3 h. The resultant mid-log phase cultures were diluted with CAMHB (CFU/mL measured by OD600), then added to each well of the compound-containing plates (384-well non-binding surface (NBS) plates; Corning CLS3640), giving a cell density of 5 × 10^5 CFU/mL and a total volume of 50 µL. Plates were covered and incubated at 37 °C for 18 h without shaking. Inhibition of bacterial growth was determined measuring absorbance at 600 nm (OD600), using media only as negative control and bacteria without inhibitors as positive control. MIC values were determined as the lowest concentration at which the growth was inhibited at ≥ 80%. Colistin sulfate (Sigma C4461) and vancomycin HCl (Sigma 861987) were used as positive inhibitor controls on each plate for Gram-negative and Gram-positive bacteria, respectively.
(§7) Figure S1. 1H NMR (400 MHz) of [Co(ATS)(DMAP)2]NO3 (3) in DMSO-d6.
(§8) (1 picture or pasted object on this page, not shown here)

Data set [9] has as its system Escherichia coli ATCC 25922. Description: CO-ADD bacterial broth microdilution MIC assay. As to conditions: CAMHB, 37 °C, 18 h, ≥ 80% inhibition; for MIC: Escherichia coli, ATCC25922, read-out: MIC Ec (Escherichia coli ATCC 25922). The format is cell-based. The procedure:
as §5, §6, §7, §8

Data set [10] has as its system Pseudomonas aeruginosa ATCC 27853. Description: CO-ADD bacterial broth microdilution MIC assay. The format is cell-based. As to conditions: CAMHB, 37 °C, 18 h, ≥ 80% inhibition; for MIC: Pseudomonas aeruginosa, ATCC27853, read-out: MIC Pa (Pseudomonas aeruginosa ATCC 27853). The procedure:
as §5, §6, §7, §8

The test system of data set [11] is Staphylococcus aureus ATCC 43300 (MRSA). Put plainly: CO-ADD bacterial broth microdilution MIC assay. The format is cell-based. As to conditions: for MIC: Staphylococcus aureus, read-out: MIC Sa (Staphylococcus aureus ATCC 43300, MRSA). The procedure: as §5, §6, §7, §8
In data set [12] the test system is Klebsiella pneumoniae ATCC 700603 (K6; ESBL SHV-18). The format is cell-based. As to conditions: 18 h. The procedure:
as §5, §6, §7, §8

Where [13] appears, read: Table S1, read-out: MIC Candida auris CBS 10913.
[14] abbreviates: range of MICs, n=8, 35 °C, 36 h, visual, read-out: MIC C. auris CBS 10913.
Where [15] appears, read: Candidozyma auris, CBS12373, Table S1, read-out: MIC Candida auris CBS 12373.
[16] abbreviates: Candidozyma auris, CBS12373, range of MICs, n=8, 35 °C, 36 h, visual, read-out: MIC C. auris CBS 12373.
Setting [17] is: Nakaseomyces glabratus, ATCC90030, Table S1, read-out: MIC Candida glabrata ATCC 90030.
Where [18] appears, read: Nakaseomyces glabratus, ATCC90030, range of MICs, n=8, 35 °C, 36 h, visual, read-out: MIC C. glabrata ATCC 90030.
Where [19] appears, read: Candida tropicalis, ATCC750, Table S1, read-out: MIC Candida tropicalis ATCC 750.
The mark [20] stands for this setting: Candida tropicalis, ATCC750, range of MICs, n=8, 35 °C, 36 h, visual, read-out: MIC C. tropicalis ATCC 750.
Where [21] appears, read: Cryptococcus deuterogattii, ATCC32609, Table S1, read-out: MIC Cryptococcus deuterogattii ATCC 32609.
[22] abbreviates: Cryptococcus deuterogattii, ATCC32609, range of MICs, n=8, 35 °C, 36 h, visual, read-out: MIC C. deuterogattii ATCC 32609.
Where [23] appears, read: Cryptococcus deuterogattii, CBS7750, Table S1, read-out: MIC Cryptococcus deuterogattii CBS 7750.
Setting [24] is: Cryptococcus deuterogattii, CBS7750, range of MICs, n=8, 35 °C, 36 h, visual, read-out: MIC C. deuterogattii CBS 7750.
[25] abbreviates: Cryptococcus neoformans, ATCC208821, Table S1, read-out: MIC Cryptococcus neoformans ATCC 208821.
Setting [26] is: Cryptococcus neoformans, ATCC208821, range of MICs, n=8, 35 °C, 36 h, visual, read-out: MIC C. neoformans ATCC 208821.
Setting [27] is: CAMHB, 37 °C, 18 h, ≥ 80% inhibition.

Usually MIC stands for the smallest concentration in the dilution series that meets the test's criterion for growth inhibition. Regarding `CC(/C=C(\O)C(F)(F)F)=N\CC/N=C(C)/C=C(\O)C(F)(F)F` [Compound L2], the MIC is over 33.2 µg/mL in [1] (setting [13]); over 100 µM in [1] (setting [14]); over 33.2 µg/mL in data set [2] (setting [15]); over 100 µM in [2] (setting [16]); over 33.2 µg/mL in data set [3] (setting [17]); over 100 µM in data set [3] (setting [18]). Besides, the minimal inhibitory concentration (MIC) was over 33.2 µg/mL in [4] (setting [19]); over 100 µM in data set [4] (setting [20]); over 33.2 µg/mL in [5] (setting [21]); over 100 µM in [5] (setting [22]); over 33.2 µg/mL in data set [6] (setting [23]); over 100 µM in data set [6] (setting [24]). Moreover, the MIC in data set [7] (setting [25]) was over 33.2 µg/mL; in data set [7] (setting [26]) it was over 100 µM; in [8], over 32 µg/mL; in data set [9], over 32 µg/mL; in [10], over 32 µg/mL; in data set [11] (setting [27]) it was over 32 µg/mL. For the same compound, in [12], the “MIC Kp (Klebsiella pneumoniae ATCC 700603)” value (“MIC Kp” for short) is listed as over 32 µg/mL.
`Oc1c(F)cccc1/C=N/CC/N=C/c1cccc(F)c1O` [Compound L3]: the minimum inhibitory concentration (MIC) is over 30.4 µg/mL in data set [1] (setting [13]); over 100 µM in data set [1] (setting [14]); over 30.4 µg/mL in data set [2] (setting [15]); 100 µM in data set [2] (setting [16]); over 30.4 µg/mL in [3] (setting [17]); over 100 µM in [3] (setting [18]). Moreover, the MIC is over 30.4 µg/mL in data set [4] (setting [19]); over 100 µM in [4] (setting [20]); over 30.4 µg/mL in data set [5] (setting [21]); 100 µM in data set [5] (setting [22]); over 30.4 µg/mL in data set [6] (setting [23]); over 100 µM in data set [6] (setting [24]). The MIC in data set [7] (setting [25]) was over 30.4 µg/mL; in data set [7] (setting [26]), 100 µM; in data set [8] it was over 32 µg/mL; in data set [9], over 32 µg/mL; in [10], over 32 µg/mL; in [11] (setting [27]) it was over 32 µg/mL. Besides, the “MIC Kp” value in data set [12] is over 32 µg/mL.
Turning to “[Co(3F‐salophen)(3F‐BnNH2)2]NO3 [Compound 6]”, the “MIC Candida auris CBS 10913” value in data set [1] (Table S1) was 0.03 to 0.54 µg/mL. Further, in [1] (lower end of MIC range), the “MIC C. auris CBS 10913, lowest value ('as low as')” value was 0.098 µM. The “MIC Candida auris CBS 12373” value in [2] (Table S1) came to 17.3 µg/mL. Besides, the MIC in data set [2] (range of MICs, n=8, 35 °C, 36 h, visual, read-out: MIC C. auris CBS 12373) was 25 µM; in data set [3] (range of MICs, n=8, 35 °C, 36 h, visual, read-out: MIC C. glabrata ATCC 90030), over 100 µM; in [4] (range of MICs, n=8, 35 °C, 36 h, visual, read-out: MIC C. tropicalis ATCC 750), over 100 µM; in data set [5] (range of MICs, n=8, 35 °C, 36 h, visual, read-out: MIC C. deuterogattii ATCC 32609), 100 µM; in data set [6] (range of MICs, n=8, 35 °C, 36 h, visual, read-out: MIC C. deuterogattii CBS 7750) it was over 100 µM; in [7] (range of MICs, n=8, 35 °C, 36 h, visual, read-out: MIC C. neoformans ATCC 208821), 100 µM. The “MIC Candida glabrata ATCC 90030” value in data set [3] (Table S1) was over 69.4 µg/mL. Moreover, the “MIC Candida tropicalis ATCC 750” value in data set [4] (Table S1) was over 69.4 µg/mL. In addition, the “MIC Cryptococcus deuterogattii ATCC 32609” value in [5] (Table S1) came out at 69.4 µg/mL. In addition, the “MIC Cryptococcus deuterogattii CBS 7750” value in data set [6] (Table S1) is over 69.4 µg/mL. Moreover, the “MIC Cryptococcus neoformans ATCC 208821” value in data set [7] (Table S1) worked out at 69.4 µg/mL. The “MIC Ab (Acinetobacter baumannii ATCC 19606)” value in data set [8] is on record as over 32 µg/mL. Moreover, in data set [9], the “MIC Ec (Escherichia coli ATCC 25922)” value was over 32 µg/mL. Moreover, the “MIC Pa (Pseudomonas aeruginosa ATCC 27853)” value in data set [10] was over 32 µg/mL. Further, the “MIC Sa (Staphylococcus aureus ATCC 43300, MRSA)” value in data set [11] (setting [27]) worked out at 8 µg/mL. Also, the “MIC methicillin‐resistant S. aureus (MRSA)” value in data set [11] (value in μM given in brackets in the text) was 11.5 µM. For the same compound, in data set [12], the “MIC Kp” value is reported as over 32 µg/mL.
